The numbers were not newly measured in publication PMC3983201, “6-Methoxyflavanones as Bitter Taste Receptor Blockers for hTAS2R39” (PLoS ONE, 2014), which cites them from elsewhere.

SMILES strings stand for the structures. Read-outs that look alike come from different tables or passages of the source.

Series [1] has as its system bitter taste. On the set-up: method as in PMID 16028996. The conditions noted are these: in-vivo sensory masking, unknown mechanism; cited from earlier work.
The target in series [2] is T1, hTAS2R39 (Homo sapiens, UniProt P59534).
T1 construct: first 45 amino acids of rat somatostatin receptor type 3 (sst3 membrane-targeting tag) (N); expressed in transfected cells; host or cells: HEK293 T-Rex Flp-In cells stably expressing Gα16-gust44; receptor in pcDNA5/FRT, induced with doxycycline
T1 sequence (P59534 1-338): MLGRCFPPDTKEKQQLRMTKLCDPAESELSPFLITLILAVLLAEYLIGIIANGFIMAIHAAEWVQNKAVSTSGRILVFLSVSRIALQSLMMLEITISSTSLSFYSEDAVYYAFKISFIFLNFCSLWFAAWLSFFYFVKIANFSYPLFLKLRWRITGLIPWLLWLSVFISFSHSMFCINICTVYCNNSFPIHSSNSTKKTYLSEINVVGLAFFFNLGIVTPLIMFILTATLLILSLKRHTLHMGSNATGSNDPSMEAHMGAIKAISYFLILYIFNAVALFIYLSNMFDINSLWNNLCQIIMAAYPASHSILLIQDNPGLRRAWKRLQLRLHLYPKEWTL
On the set-up: method as in PMID 24117141. Conditions: cited from earlier work.

In series [3] the test system is hTAS2R31. On the set-up: method as in PMID 22059530. The conditions noted are these: cited from earlier work.

For the molecule `COc1cc([C@@H]2CC(=O)c3c(O)cc(O)cc3O2)ccc1O` [Compound 7, Homoeriodictyol], the “reduction of the bitter taste of different chemical classes of bitter molecules” value in series [1] was “up to 40%”. Moreover, the “activation of hTAS2R39 in a previous study” value in series [2] is “a activated hTAS2R39 in a previous study [16], but was selected for testing as antagonist due to ability to reduce bitter taste perception in sensory tests [9]”.

Consider `COc1cc(O)c2c(c1)O[C@H](c1ccc(O)cc1)CC2=O` [Compound 14, Sakuranetin], for which the results for the “antagonism of hTAS2R31” value in series [3] and in series [3] (listed as sakuranetin) were “c reported as antagonist of hTAS2R31 [10]” and “antagonists for hTAS2R31”, respectively.

With `O=C1C[C@@H](c2ccc(O)c(O)c2)Oc2cc(O)cc(O)c21` [Compound 4, Eriodictyol], the “reduction of the bitter taste of different chemical classes of bitter molecules” value in series [1] was “up to 40%”. Besides, the “activation of hTAS2R39 in a previous study” value in series [2] is “a activated hTAS2R39 in a previous study [16], but was selected for testing as antagonist due to ability to reduce bitter taste perception in sensory tests [9]”.

In the case of `COc1cc2c(c(O)c1OC)C(=O)C[C@@H](c1ccc(O)cc1)O2` [6-methoxysakuranetin, reference compound], the “antagonism of hTAS2R31” value in series [3] is given as “antagonists for hTAS2R31”.
